Assay results as given in PubChem BioAssay (NCI).
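All cell lines were grown in 96-well plates and treated with compound for 48 hours. At the GI50, growth is halved. TGI marks complete inhibition of growth.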

Tests used:
Assay in all cases: DTP human tumour cell line panel, 48 h
[1] = system: A498 renal
[2] = system: ACHN renal
[3] = system: EKVX NSCLC
[4] = system: HT29 colon
[5] = system: K-562 leukemia
[6] = system: MDA-MB-231 breast
[7] = system: MOLT-4 leukemia
[8] = system: OVCAR-5 ovarian
[9] = system: RPMI-8226 leukemia
[10] = system: TK-10 renal

Row | Compound | GI50 [1] [µM] | TGI [1] [µM] | GI50 [2] [µM] | TGI [2] [µM] | GI50 [3] [µM] | TGI [3] [µM] | GI50 [4] [µM] | GI50 [5] [µM] | TGI [5] [µM] | GI50 [6] [µM] | TGI [6] [µM] | GI50 [7] [µM] | TGI [7] [µM] | GI50 [8] [µM] | TGI [8] [µM] | GI50 [9] [µM] | TGI [9] [µM] | GI50 [10] [µM] | TGI [10] [µM] | TGI [4] [µM]
1 | O=C(CCCCCCc1nc2ccc(Br)cc2[nH]1)NO | 0.723 | 2.1 | 0.671 | 3.41 | 1.55 | 97.1 | 0.291 | 0.357 | > 100 | 0.824 | 25 | 0.342 | > 100 | 0.568 | 22.3 | 0.411 | > 100 | 0.596 | 5.7 | 
2 | COc1ccccc1/C=C1\COc2ccc(O)c(O)c2C1=O | 3.4 | 18 | 1.31 | 2.64 | 3 | 46.1 | 2.77 | 0.671 | 14.1 | 2.24 | 10.2 | 1.79 | 19.1 | 2.33 | 5.48 | 0.235 | 0.693 | 3.08 | > 100 | 7.78
3 | Clc1ccc(Cl)c(N/N=C\c2c[nH]c3ccccc23)c1 | 14.5 | 29.6 | 12 | 32.6 | 2.36 | 15.5 |  | 1.83 | 17.7 | 2.05 | 8.07 | 0.293 | 11.8 | 17.3 | 36.9 | 6.16 | 26.1 | 12 | 26.8 | 
4 | COc1ccc(CN2CCc3c(Cl)nc(N)nc3C2=O)c(OC)c1 | 23.7 | 81.5 | 20.4 | 48.5 | 16.8 | 61.7 | 15.2 | 2.46 | 37.7 | 14.8 | 30.3 | 2.46 | 34.6 | 21.1 | 46.7 | 16 | 52.7 | 33.1 | 99.3 | 29.1
5 | CCOP1(=O)OCC2OC(n3cnc4c(N)ncnc43)C(O)C2O1 (stereo unspecified) |  | > 100 |  | > 100 |  | > 100 |  |  | > 100 |  | > 100 |  | > 100 |  | > 100 |  | > 100 |  | > 100 | > 100
6 | Cc1nc2c(cnn2-c2ccnc3c(C(F)(F)F)cccc23)c(=O)o1 | > 100 | > 100 | > 100 | > 100 | > 100 | > 100 | > 100 | > 100 | > 100 | > 100 | > 100 | > 100 | > 100 | > 100 | > 100 | > 100 | > 100 | > 100 | > 100 | > 100
7 | COc1ccc(NC(=O)c2ccc(NC3=C(Cl)C(=O)N(Cc4ccccc4)C3=O)cc2)cc1 | 16.8 | 34.8 | 3.64 | 12.7 | 32.1 | > 100 | 11.5 | 4.02 | 64.8 | 11.9 | 26.2 | 2.6 | > 100 | 14.8 | 28.8 | 2.38 | 8.06 | 22.1 | 38 | 90.3
8 | COC1CC(OC2OC(CO)C(O)C(O)C2O)/C(=C\C#N)C(O)C1OC (stereo unspecified) |  | > 100 |  | > 100 |  | > 100 |  |  |  |  | > 100 |  | > 100 |  | > 100 |  | > 100 |  | > 100 | > 100
9 | C=C1C(=O)OC(CCCCCCCC)C1C(=O)O (stereo unspecified) | 17.4 | 33.3 | 17.2 | 31 | 16.1 | 31.2 | 22.1 | 27.9 | > 75.8 | 17.7 | 33.2 | 22.2 | 54 | 17 | 31.8 | 15 | 59.7 | 18.9 | 33.6 | 47.2
10 | COc1c(O)c2ccccc2c2cc(O)ccc12 |  | 24.1 |  | 14.5 |  | 32.9 |  |  | 21.9 |  | 19.4 |  | 77.4 |  | 21.7 |  | 35.7 |  | 61.2 | 47.4
11 | CN(NC(=O)/C(=C/c1ccc(O)cc1)NC(=O)c1ccccc1)c1ccnc2cc(Cl)ccc12 |  | 32.4 |  | 33 |  | 42.9 |  |  | 30.5 |  | 40.4 |  | 43 |  | 50.5 |  | 40.7 |  | 30 | 23
